Data as given in ChEMBL document CHEMBL3352642, “6-Acetonyldihydrochelerythrine Is a Potent Inducer of Apoptosis in HCT116 and SW620 Colon Cancer Cells” (J Nat Prod, 2014).
Active and inactive are the calls of the source. The rule behind the calls is not given here.

Legend:
SW-620 [1] = assay: Induction of apoptosis in human SW620 cells assessed as reduction in Bcl-XL expression at 1 to 2 times IC50 after 72 hrs by immunoblot analysis relative to control; type: functional, cell-based
SW-620 [2] = assay: Induction of apoptosis in human SW620 cells assessed as reduction in Bcl-2 expression at 1 to 2 times IC50 after 72 hrs by immunoblot analysis relative to control; type: functional, cell-based
HCT-116 [3] = assay: Induction of apoptosis in human HCT116 cells assessed as increase in p53 expression at 1 to 2 times IC50 after 72 hrs by immunoblot analysis relative to control; type: functional, cell-based
[4] = (§1) Cytotoxicity against human HCT116 cells assessed as cell death at 2 times IC50 after 72 hrs by LDH release assay relative to control; type: functional, HCT-116
HCT-116 [5] = assay: Induction of apoptosis in human HCT116 cells assessed as reduction in XIAP expression at 1 to 2 times IC50 after 72 hrs by immunoblot analysis relative to control; type: functional, cell-based
SW-620 [6] = assay: Cytotoxicity against human SW620 cells after 72 hrs by MTS assay; type: functional, cell-based; details: SW-620, 72 h
SW-620 [7] = assay: Induction of apoptosis in human SW620 cells assessed as reduction in XIAP expression at 1 to 2 times IC50 after 72 hrs by immunoblot analysis relative to control; type: functional, cell-based
[8] = Cytotoxicity against human HCT116 cells after 72 hrs by MTS assay; type: functional, cell-based; details: HCT-116, 72 h
[9] = (§2) Induction of cell death in human HCT116 cells at IC50 after 72 hrs by Guava ViaCount assay relative to control; type: functional, HCT-116
HCT-116 [10] = assay: Induction of apoptosis in human HCT116 cells assessed as change in nuclear morphology at IC50 after 24 hrs by fluorescent microscopy relative to control; type: functional
SW-620 [11] = assay: Cytotoxicity against human SW620 cells assessed as cell death at 2 times IC50 after 72 hrs by LDH release assay relative to control; type: functional
HCT-116 [12] = assay: Induction of apoptosis in human HCT116 cells assessed as reduction in Akt expression at 1 to 2 times IC50 after 72 hrs by immunoblot analysis relative to control; type: functional, cell-based
SW-620 [13] = assay: Induction of apoptosis in human SW620 cells assessed as increase in p53 expression at 1 to 2 times IC50 after 72 hrs by immunoblot analysis relative to control; type: functional, cell-based
SW-620 [14] = assay: Induction of apoptosis in human SW620 cells assessed as change in nuclear morphology at IC50 after 24 hrs by fluorescent microscopy relative to control; type: functional
HCT-116 [15] = assay: Induction of apoptosis in human HCT116 cells assessed as change in nuclear morphology at 2 times IC50 after 24 hrs by fluorescent microscopy relative to control; type: functional
SW-620 [16] = assay: Induction of apoptosis in human SW620 cells assessed as increase in PARP cleavage at 1 to 2 times IC50 after 72 hrs by immunoblot analysis relative to control; type: functional, cell-based
HCT-116 [17] = assay: Induction of apoptosis in human HCT116 cells assessed as reduction in ERK5 expression at 1 to 2 times IC50 after 72 hrs by immunoblot analysis relative to control; type: functional, cell-based
[18] = (§3) Cytotoxicity against human HCT116 cells assessed as cell death at IC50 after 72 hrs by LDH release assay relative to control; type: functional, HCT-116
HCT-116 [19] = assay: Induction of apoptosis in human HCT116 cells assessed as increase in PARP cleavage at 1 to 2 times IC50 after 72 hrs by immunoblot analysis relative to control; type: functional, cell-based
SW-620 [20] = assay: Induction of cell death in human SW620 cells at IC50 after 72 hrs by Guava ViaCount assay relative to control; type: functional
SW-620 [21] = assay: Induction of cell death in human SW620 cells at 2 times IC50 after 72 hrs by Guava ViaCount assay relative to control; type: functional
HCT-116 [22] = assay: Induction of apoptosis in human HCT116 cells assessed as reduction in Bcl-XL expression at 1 to 2 times IC50 after 72 hrs by immunoblot analysis relative to control; type: functional, cell-based
SW-620 [23] = assay: Induction of apoptosis in human SW620 cells assessed as reduction in ERK5 expression at 1 to 2 times IC50 after 72 hrs by immunoblot analysis relative to control; type: functional, cell-based
HCT-116 [24] = assay: Induction of apoptosis in human HCT116 cells assessed as reduction in Bcl-2 expression at 1 to 2 times IC50 after 72 hrs by immunoblot analysis relative to control; type: functional, cell-based
[25] = (§4) Induction of cell death in human HCT116 cells at 2 times IC50 after 72 hrs by Guava ViaCount assay relative to control; type: functional, HCT-116
SW-620 [26] = assay: Induction of apoptosis in human SW620 cells assessed as reduction in Akt expression at 1 to 2 times IC50 after 72 hrs by immunoblot analysis relative to control; type: functional, cell-based
SW-620 [27] = assay: Induction of apoptosis in human SW620 cells assessed as change in nuclear morphology at 2 times IC50 after 24 hrs by fluorescent microscopy relative to control; type: functional
HCT-116 [28] = assay: as §1; type: functional
HCT-116 [29] = assay: as §2; type: functional
SW-620 [30] = assay: Cytotoxicity against human SW620 cells assessed as cell death at IC50 after 72 hrs by LDH release assay relative to control; type: functional
HCT-116 [31] = assay: as §3; type: functional
HCT-116 [32] = assay: as §4; type: functional

COc1ccc2c(c1OC)[C@H](CC(C)=O)N(C)c1c-2ccc2cc3c(cc12)OCO3
Activity (SW-620 [1]): Active | Activity (SW-620 [2]): Active | Activity (HCT-116 [3]): Active | fold change (FC) [4]: 1.3 | Activity (HCT-116 [5]): Active | IC50 (SW-620 [6]): 3.8 µM | Activity (SW-620 [7]): Active | IC50 [8]: 2.4 µM | Activity [9]: 25% | Activity (HCT-116 [10]): 19% | fold change (FC) (SW-620 [11]): 1.1 | Activity (HCT-116 [12]): Active | Activity (SW-620 [13]): Active | Activity (SW-620 [14]): 22% | Activity (HCT-116 [15]): 22% | Activity (SW-620 [16]): Active | Activity (HCT-116 [17]): Active | fold change (FC) [18]: 1.2 | Activity (HCT-116 [19]): Active | Activity (SW-620 [20]): 34% | Activity (SW-620 [21]): 65% | Activity (HCT-116 [22]): Active | Activity (SW-620 [23]): Active | Activity (HCT-116 [24]): Active | Activity [25]: 65% | Activity (SW-620 [26]): Active | Activity (SW-620 [27]): 27%

O=c1[nH]cc(F)c(=O)[nH]1 [FLUOROURACIL]
Activity (HCT-116 [28]): Active | IC50 (SW-620 [6]): 5.3 µM | IC50 [8]: 0.5 µM | Activity (HCT-116 [29]): Active | fold change (FC) (SW-620 [30]): 1.1 | fold change (FC) (SW-620 [11]): 1.9 | Activity (HCT-116 [15]): <10% | Activity (HCT-116 [31]): Active | Activity (SW-620 [20]): Active | Activity (SW-620 [21]): Active | Activity (HCT-116 [32]): Active | Activity (SW-620 [27]): 13%
